Reference: PubChem BioAssay (NCI)
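These data come from cells grown in 96-well plates and exposed to compound for 48 hours at five concentrations. The concentration for full growth arrest is given as TGI.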

Experiments:
Assay in all cases: NCI-60 cell line screen, 48 h
[1] = tested on: MCF7 breast
[2] = tested on: UACC-257 melanoma
[3] = tested on: NCI-H226 lung
[4] = tested on: KM12 colon
[5] = tested on: A498 renal
[6] = tested on: TK-10 renal
[7] = tested on: SN12C renal
[8] = tested on: K-562 leukemia
[9] = tested on: SF-295 CNS
[10] = tested on: A549 NSCLC
[11] = tested on: T-47D breast
[12] = tested on: NCI-H460 lung
[13] = tested on: HS 578T breast
[14] = tested on: SNB-75 CNS
[15] = tested on: HCC-2998 colon
[16] = tested on: BT-549 breast
[17] = tested on: SF-539 CNS
[18] = tested on: MALME-3M melanoma
[19] = tested on: CCRF-CEM leukemia
[20] = tested on: SW-620 colon

Structure (SMILES)	TGI [1]	TGI [2]	TGI [3]	TGI [4]	TGI [5]	TGI [6]	TGI [7]	TGI [8]	TGI [9]	TGI [10]	TGI [11]	TGI [12]	TGI [13]	TGI [14]	TGI [15]	TGI [16]	TGI [17]	TGI [18]	TGI [19]	TGI [20]
CC(=O)N1C(=O)/C(=C\C(=O)c2ccc([N+](=O)[O-])cc2)c2ccccc21	69.7 µM	40.9 µM	> 100 µM	55.5 µM	> 100 µM	26.3 µM	35 µM	36.5 µM	> 100 µM	> 100 µM	61.9 µM	39.9 µM	54.2 µM	49.6 µM	36.7 µM	42.1 µM	49.8 µM	45.9 µM	16.9 µM	
O=c1c2nn3c(=O)n(-c4ccccc4)c(=O)c3nn2c(=O)n1-c1ccccc1	> 100 µM	> 100 µM	> 100 µM	> 100 µM	> 100 µM	> 100 µM	> 100 µM	> 100 µM	> 100 µM	> 100 µM	> 100 µM	> 100 µM	> 100 µM	> 100 µM	> 100 µM	> 100 µM	> 100 µM	> 100 µM	> 100 µM	> 100 µM
C=CCOc1ccc(/C(N=Nc2ccc([N+](=O)[O-])cc2)=N/NC(=O)c2ccccc2)cc1OC	> 100 µM	> 100 µM	> 100 µM	> 100 µM	> 100 µM	> 100 µM	> 100 µM		> 100 µM	> 100 µM	> 100 µM	> 100 µM	> 100 µM	> 100 µM	> 100 µM	> 100 µM	> 100 µM	> 100 µM	> 100 µM	> 100 µM
CC(=O)OCOC(=O)CN(CC(=O)OCOC(C)=O)Cc1cc2c(cc1OC(C)=O)Oc1cc(OC(C)=O)c(CN(CC(=O)OCOC(C)=O)CC(=O)OCOC(C)=O)cc1C21OC(=O)c2ccccc21	7.73 µM	1.27 µM	2.86 µM		2.61 µM	3 µM	2.83 µM	0.401 µM	11.1 µM	4.82 µM	4.21 µM	1.45 µM	1.59 µM	9.39 µM		1.16 µM	1.05 µM	1.88 µM	0.374 µM	3.64 µM
O=C1C(Cl)=C(OCCCCl)C(=O)c2c(O)ccc(O)c21	3.12 µM	5.98 µM	30.8 µM	29.1 µM	28.5 µM	9.48 µM	5.1 µM	1.7 µM	18.3 µM	14.6 µM	6.43 µM	27.2 µM	22.8 µM	3.91 µM	30.2 µM	3.86 µM	8.97 µM	3.6 µM	0.168 µM	4.29 µM
O=C(C1OC1c1ccc(O)cc1)C12CC3CC(CC(C3)C1)C2 (stereo unspecified)	> 100 µM	> 100 µM	> 100 µM	> 100 µM	> 96.1 µM	> 100 µM	> 69.7 µM	> 61.3 µM	> 100 µM	> 100 µM	51.6 µM	> 100 µM	> 100 µM	> 100 µM	> 100 µM	> 81.8 µM	> 94.9 µM	98.9 µM	> 41.5 µM	70.3 µM
O=C1C=C2C(=NC34CCCCC3C(c3ccccc3)C3=C(c5ccccc5CC3)N24)c2ccccc21 (stereo unspecified)	> 10 µM	> 10 µM	> 10 µM	> 10 µM	> 10 µM	> 10 µM	> 10 µM	> 10 µM	> 10 µM	> 10 µM	> 10 µM	> 10 µM	> 10 µM	> 10 µM	> 10 µM	> 10 µM	> 10 µM	> 10 µM	> 10 µM	> 10 µM
S=c1sc2c(s1)SCCCCSCCCCSc1sc(=S)sc1SCCCCSCCCCS2	> 100 µM	> 100 µM	> 100 µM	> 100 µM	> 100 µM	> 100 µM	> 100 µM	> 100 µM	> 100 µM	> 100 µM	> 100 µM	> 100 µM	> 100 µM	59.2 µM	> 100 µM	> 100 µM	> 100 µM	> 100 µM	> 100 µM	> 100 µM
NC(=O)N=C(N(Cc1ccccc1)Cc1ccccc1)N(Cc1ccccc1)Cc1ccccc1	> 100 µM	> 100 µM	> 100 µM	> 100 µM	> 100 µM	> 100 µM	> 100 µM	> 100 µM	35.1 µM	> 100 µM	> 100 µM	> 100 µM	> 100 µM	81.8 µM	> 100 µM	> 100 µM	> 100 µM	> 100 µM	> 100 µM	> 100 µM
CCOC(=O)N/N=C(/OCC)c1ccccc1	> 100 µM	> 100 µM	> 100 µM	> 100 µM	> 100 µM	> 100 µM	> 100 µM	> 100 µM	> 100 µM	> 100 µM	> 100 µM	> 100 µM	> 100 µM		> 100 µM	> 100 µM	> 100 µM	> 100 µM	> 100 µM	> 100 µM
CC1CNc2ccccc2N=C1NN (stereo unspecified)	> 100 µM	> 100 µM	> 100 µM	> 100 µM	> 100 µM	> 100 µM	> 100 µM	> 100 µM	> 100 µM	> 100 µM	> 100 µM	> 100 µM	> 100 µM		> 100 µM	> 100 µM	> 100 µM	> 100 µM	> 100 µM	> 100 µM
CC(=O)CCCCC(=O)Nc1ccc(CC(NC(=O)OC(C)(C)C)C(=O)NCC(=O)OCc2ccccc2)cc1 (stereo unspecified)	49.5 µM		94 µM	52.1 µM	60.6 µM	> 100 µM	64.4 µM	47.6 µM	35.6 µM	> 100 µM	42.6 µM	43 µM	48.4 µM		38 µM	28.6 µM	34.1 µM	40.4 µM		33 µM
